Drawing on patent publication US8791100B2 (Novartis AG, priority 2010, dated 2014), this text covers IC50 for 26 compounds.

pIC50: −log10 of the molar value.

The target in the test is human S1P1 receptors (Homo sapiens (Human), UniProt P21453). Put plainly: Human S1P1 Receptor Calcium FLIPR Antagonist Assay (HeLa Gα16 S1P1). In kind it is cell-based. To be noted: relative antagonism vs probing agonist GNF-AC-1 at EC80, HeLa-S1P1/Gα16 cells. An excerpt:
Human S1P1 Receptor Calcium FLIPR Antagonist Assay
The assay measures intracellular changes of Ca^2+ mediated by the synthetic probing agonist 3-{[2-(2-Trifluoromethyl-biphenyl-4-yl)-benzo[b]thiophen-5-ylmethyl]-amino}-propionic acid (GNF-AC-1) in the HeLa-S1P1/Gα16 cell clone 1: HeLa (human cervix carcinoma, ATCC CCL2) cells stably expressing N-terminally myc-tagged human S1P1 receptors (GenBank™ accession No. NM_001400; UNIPROT P21453) and promiscuous Gα16 protein (GenBank™ accession number M63904, Swissprot P30679) are cultured at 37° C., 5% CO2, and 95% relative humidity. The cells are plated in 384 well black plates (10′000 cells per well). After 24 hours the cells are loaded with Fluo-4-AM (1.6 μM in HBSS and 2.5 mM probenicid) for 1 hour at 37° C. After washing, the cells are transferred to the FLIPR. The test compounds are added at different concentrations (≦100 μM) in HBSS in the presence of 0.1% BSA and changes in fluorescence are recorded (indication of agonism). The probing agonist is added 20-30 minutes afterwards to the wells at a concentration giving 80% of the maximal activity (EC80). After each addition, time points are collected as follows: 20 time points (2 seconds) before the addition of the agonist (Fmin) and 60 time points (1 or 2 seconds) after the addition of the probing agonist. This allows the determination of the maximal fluorescence (Fmax). The ratio (Fmax−Fmin)/Fmin is plotted against the log of the concentration of the test compounds and the IC50 (relative antagonism) is calculated using the XLfit-4 software. […] A concentration-response curve of the probing agonist is determined on each plate in parallel.

Chain of human S1P1 receptors (P21453 whole entry): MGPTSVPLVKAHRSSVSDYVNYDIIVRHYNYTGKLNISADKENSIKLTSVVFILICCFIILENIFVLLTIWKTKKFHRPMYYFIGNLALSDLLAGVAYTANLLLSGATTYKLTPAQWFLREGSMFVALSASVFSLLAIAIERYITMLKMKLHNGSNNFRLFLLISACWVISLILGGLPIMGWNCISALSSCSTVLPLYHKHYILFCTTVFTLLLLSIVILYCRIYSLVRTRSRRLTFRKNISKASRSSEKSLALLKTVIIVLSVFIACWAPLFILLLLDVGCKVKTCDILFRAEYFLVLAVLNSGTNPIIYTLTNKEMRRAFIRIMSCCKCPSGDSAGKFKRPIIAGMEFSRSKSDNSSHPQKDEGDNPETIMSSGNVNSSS

Regarding `Cc1cc([C@H](Nc2cccc(CN3CC(C(=O)O)C3)c2C)C(F)(F)F)ccc1Cl` [Example 39, 1-{3-[(S)-1-(4-Chloro-3-methyl-phenyl)-2,2,2-trifluoro-ethylamino]-2-methyl-benzyl}-azetidine-3-carboxylic acid], the pIC50 was 9.10. As to `Cc1cc([C@H](Nc2ccc(C)c(CNCCC(=O)O)c2C)C(F)(F)F)ccc1Cl` [Example 40, 3-{3-[(S)-1-(4-Chloro-3-methyl-phenyl)-2,2,2-trifluoro-ethylamino]-2,6-dimethyl-benzylamino}-propionic acid], the pIC50 is 9.40. Consider `Cc1ccc(N[C@H](C)c2cc(C)c(Cl)c(C)c2)cc1CN1CC[C@@H](C(=O)O)C1` [Example 44, (R)-1-{5-[(R)-1-(4-Chloro-3,5-dimethyl-phenyl)-ethylamino]-2-methyl-benzyl}-pyrrolidine-3-carboxylic acid], for which the pIC50 is 8.17. On to `Cc1cc([C@@H](C)Nc2ccc(Cl)c(CN3CC[C@@H](C(=O)O)C3)c2)cc(C)c1Cl` [Example 46, (R)-1-{2-Chloro-5-[(R)-1-(4-chloro-3,5-dimethyl-phenyl)-ethylamino]-benzyl}-pyrrolidine-3-carboxylic acid], for which the pIC50 is 8.89. With `Cc1ccc(N[C@H](C)c2cc(C)c(Cl)c(C)c2)cc1CNCCC(=O)O` [Example 47, 3-{5-[(R)-1-(4-Chloro-3,5-dimethyl-phenyl)-ethylamino]-2-methyl-benzylamino}-propionic acid], the pIC50 was 8.80. `CC[C@@H](Nc1ccc(C)c(CNC[C@@H](C)C(=O)O)c1)c1cc(C)c(Cl)c(C)c1` [Example 49, (R)-3-(5-[(R)-1-(4-Chloro-3,5-dimethyl-phenyl)-propylamino)-2-methyl-benzylamino]-2-methyl-propionic acid]: the pIC50 was 8.62.

Turning to `Cc1cc([C@H](Nc2ccc(Cl)c(CNCCC(=O)O)c2)C(F)(F)F)ccc1Cl` [Example 52, 3-{2-Chloro-5-[(S)-1-(4-chloro-3-methyl-phenyl)-2,2,2-trifluoro-ethylamino]-benzylamino}-propionic acid], the negative logarithm of the IC50 (pIC50) is 9.05. As to `CC[C@@H](Nc1cc(CN2CC(C(=O)O)C2)c(F)cn1)c1ccc(Cl)c(C)c1` [Example 54, 1-{2-[(R)-1-(4-Chloro-3-methyl-phenyl)-propylamino]-5-fluoro-pyridin-4-ylmethyl}-azetidine-3-carboxylic acid], the pIC50 was 9.05. The same measure for `CC[C@@H](Nc1cc(CN2CCC(C)(C(=O)O)C2)c(Cl)cn1)c1ccc(Cl)c(C)c1` (stereo partly drawn) [Example 57, 1-{5-Chloro-2-[(R)-1-(4-chloro-3-methyl-phenyl)-propylamino]-pyridin-4-ylmethyl}-3-methyl-pyrrolidine-3-carboxylic acid]: 8.62. For `CC[C@@H](Nc1cc(CNCCC(=O)O)c(Cl)cn1)c1ccc(Cl)c(C)c1` [Example 58, 3-({5-Chloro-2-[(R)-1-(4-chloro-3-methyl-phenyl)-propylamino]-pyridin-4-ylmethyl}-amino)-propionic acid], the pIC50 was 10.00. Regarding `CC[C@@H](Nc1cc(CN2CC[C@@H](C(=O)O)C2)c(C)cn1)c1ccc(Cl)c(C)c1` [Example 60, (R)-1-{2-[(R)-1-(4-Chloro-3-methyl-phenyl)-propylamino]-5-methyl-pyridin-4-ylmethyl}-pyrrolidine-3-carboxylic acid], the pIC50 is 8.68. In the case of `Cc1cc([C@H](Nc2ccc(Cl)c(CN3CC(C(=O)O)C3)c2)C(C)C)ccc1Cl` [Example 63, 1-{2-Chloro-5-[(R)-1-(4-chloro-3-methyl-phenyl)-2-methyl-propylamino]-benzyl}-azetidine-3-carboxylic acid], the pIC50 is 8.96. Consider `Cc1cc([C@H](Nc2ccc(Cl)c(CN3CC(C(=O)O)C3)c2)C(C)C)cc(C)c1Cl` [Example 64, 1-{2-Chloro-5-[(R)-1-(4-chloro-3,5-dimethyl-phenyl)-2-methyl-propylamino]-benzyl}-azetidine-3-carboxylic acid], for which the negative logarithm of the IC50 (pIC50) was 8.77. As for `Cc1cc([C@H](Nc2cccc(CN3CC(C(=O)O)C3)c2)C(F)(F)F)ccc1Cl` [Example 67, 1-{3-[(S)-1-(4-Chloro-3-methyl-phenyl)-2,2,2-trifluoro-ethylamino]-benzyl}-azetidine-3-carboxylic acid], the pIC50 was 9.10. Take `Cc1cc([C@H](Nc2ccc(Cl)c(CN3CC(C(=O)O)C3)c2)C(F)(F)F)ccc1Cl` [Example 68]: the pIC50 is 9.15. `Cc1cc([C@H](Nc2ccc(C(F)(F)F)c(CN3CC(C(=O)O)C3)c2)C(F)(F)F)ccc1Cl` [Example 69, 1-{5-[(S)-1-(4-Chloro-3-methyl-phenyl)-2,2,2-trifluoro-ethylamino]-2-trifluoromethyl-benzyl}-azetidine-3-carboxylic acid]: the negative logarithm of the IC50 (pIC50) was 9.10. For `Cc1cc([C@H](Nc2ccc(Cl)c(CN3CCC(C(=O)O)C3)c2)C(F)(F)F)ccc1Cl` (stereo partly drawn) [Example 72, 1-{2-Chloro-5-[(S)-1-(4-chloro-3-methyl-phenyl)-2,2,2-trifluoro-ethylamino]-benzyl}-pyrrolidine-3-carboxylic acid], the pIC50 is 8.96. For `CC[C@@H](Nc1cccc(CN2CC(C(=O)O)C2)n1)c1ccc(Cl)c(C)c1` [Example 74, 1-{6-[(R)-1-(4-Chloro-3-methyl-phenyl)-propylamino]-pyridin-2-ylmethyl}-azetidine-3-carboxylic acid], the pIC50 is 7.85. As for `CC[C@@H](Nc1cc(CN2CC(C(=O)O)C2)ccn1)c1ccc(Cl)c(C)c1` [Example 75, 1-{2-[(R)-1-(4-Chloro-3-methyl-phenyl)-propylamino]-pyridin-4-ylmethyl}-azetidine-3-carboxylic acid], the negative-log IC50 (pIC50) is 8.55. Regarding `Cc1cc([C@H](Nc2cccc(CN3CC(C(=O)O)C3)c2)C2CCC2)ccc1Cl` [Example 76, 1-(3-{[(R)-(4-Chloro-3-methyl-phenyl)-cyclobutyl-methyl]-amino}-benzyl)-azetidine-3-carboxylic acid], the pIC50 was 8.24.

As for `CC[C@@H](Nc1ccnc(CN2CC(C(=O)O)C2)c1)c1ccc(Cl)c(C)c1` [Example 78, 1-{4-[(R)-1-(4-Chloro-3-methyl-phenyl)-propylamino]-pyridin-2-ylmethyl}-azetidine-3-carboxylic acid], the pIC50 is 9.10. Take `CC[C@@H](Nc1cc(CN2CC(C(=O)O)C2)c(Cl)cn1)c1ccc(Cl)c(C)c1` [Example 79, 1-{5-Chloro-2-[(R)-1-(4-chloro-3-methyl-phenyl)-propylamino]-pyridin-4-ylmethyl}-azetidine-3-carboxylic acid]: the negative logarithm of the IC50 (pIC50) is 9.22.

Consider `CC[C@@H](Nc1ccc(C)c(CNCC(C)(C)C(=O)O)c1)c1cc(C)c(Cl)c(C)c1` [Example 80, 3-{5-[(R)-1-(4-Chloro-3,5-dimethyl-phenyl)-propylamino]-2-methyl-benzylamino}-2,2-dimethyl-propionic acid], for which the pIC50 is 7.61. As to `CC[C@@H](Nc1ccc(C)c(CNC[C@H](C)C(=O)O)c1)c1cc(C)c(Cl)c(C)c1` [Example 81, (S)-3-{5-[(R)-1-(4-Chloro-3,5-dimethyl-phenyl)-propylamino]-2-methyl-benzylamino}-2-methyl-propionic acid], the pIC50 was 8.41. For the compound `CC[C@@H](Nc1ccc(C)c(CN(C)CCC(=O)O)c1)c1cc(C)c(Cl)c(C)c1` [Example 82, 3-({5-[(R)-1-(4-Chloro-3,5-dimethyl-phenyl)-propylamino]-2-methyl-benzyl}-methyl-amino)-propionic acid], the pIC50 is 8.52. Regarding `Cc1cc([C@H](Nc2ccc(C)c(CN3CCC(C)(C(=O)O)C3)c2)C(F)(F)F)ccc1Cl` (stereo partly drawn) [Example 83, 1-{5-[(S)-1-(4-Chloro-3-methyl-phenyl)-2,2,2-trifluoro-ethylamino]-2-methyl-benzyl}-3-methyl-pyrrolidine-3-carboxylic acid], the pIC50 was 8.54.
